The values that follow come from patent US8283373B2, “Inhibitors of cytosolic phospholipase A2” (Pfizer Inc., priority 2005, dated 2012).

“Also recorded” adds a separate entry of the source.

One assay concerns the target T1, cPLA2α (Homo sapiens, UniProt P47712).
T1 sequence (P47712 1-749): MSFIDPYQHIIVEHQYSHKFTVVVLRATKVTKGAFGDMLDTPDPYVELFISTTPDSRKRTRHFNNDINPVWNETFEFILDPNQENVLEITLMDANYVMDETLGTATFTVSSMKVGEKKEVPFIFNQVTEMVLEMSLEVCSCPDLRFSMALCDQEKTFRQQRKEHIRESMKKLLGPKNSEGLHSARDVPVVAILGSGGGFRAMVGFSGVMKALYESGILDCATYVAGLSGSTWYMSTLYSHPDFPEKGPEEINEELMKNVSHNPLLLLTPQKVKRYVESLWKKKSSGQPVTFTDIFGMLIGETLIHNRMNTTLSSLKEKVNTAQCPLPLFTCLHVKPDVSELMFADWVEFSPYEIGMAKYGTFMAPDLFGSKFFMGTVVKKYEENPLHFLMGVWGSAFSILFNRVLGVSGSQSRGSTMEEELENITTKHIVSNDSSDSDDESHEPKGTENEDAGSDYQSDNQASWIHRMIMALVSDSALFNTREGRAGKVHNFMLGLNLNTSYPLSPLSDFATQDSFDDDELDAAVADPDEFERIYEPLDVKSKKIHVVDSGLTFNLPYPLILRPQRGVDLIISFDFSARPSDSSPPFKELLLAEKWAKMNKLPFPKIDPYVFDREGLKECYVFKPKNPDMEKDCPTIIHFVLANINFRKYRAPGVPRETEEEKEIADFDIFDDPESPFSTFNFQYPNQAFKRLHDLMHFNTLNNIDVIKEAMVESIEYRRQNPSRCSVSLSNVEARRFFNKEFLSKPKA
The experiment in a line: GLU Micelle Assay. The assay is classed as biochemical. The gist of the method: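 Fluorogenic micelle assay with 1 μg/ml cPLA2α and 90 μM GLU substrate plus 120 μM DTPC in 940 μM Triton X-100, 50 mM Hepes pH 7.4, 0.3 mM EDTA, 1 mM CaCl2, 300 mM KCl. Fluorescence (ex 355/em 460) was read every 4 min for 84 min. Percent inhibition came from slopes relative to positive and negative controls.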

The next assay relates to TXB2. Description: Rat Whole Blood Assay (A23187-stimulated TXB2). Type of assay: cell-based. The following applies: Rattus norvegicus; A23187 5 μM. The gist of the method: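 Heparinized male Sprague-Dawley rat blood pre-incubated 15 min at 37 °C with compound or DMSO, then stimulated with 5 μM (final) A23187 for 10 min at 37 °C. Stopped with 20 mM EDTA; TXB2 in methanol-extracted plasma measured by ELISA.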

Another assay concerns carrageenan paw edema. The experiment in a line: Carrageenan paw edema assay. The assay is classed as in vivo. The following applies: oral. As for the experimental part:
The carrageenan paw edema assay is an acute model of inflammation that is particularly useful for in vivo assessment of compounds that effect the production of prostaglandins. In particular, NSAIDs inhibit edema in a characteristic dose response fashion in this model, and the activity of NSAIDs in this model correlates well with the activity observed in man (See Mukherjee A, et al., Inflamm Res. 1996; 45:531-540). Therefore, the compound of Example 10 was tested in the carrageenan paw edema model.
Background: Carrageenan injected into the paw causes an acute inflammation.

With `O=C(O)c1ccc(CCCc2c(CCNS(=O)(=O)Cc3ccccc3C(F)(F)F)n(C(c3ccccc3)c3ccccc3)c3ccc(Cl)cc23)cc1` [Example 10, 4-(3-{5-chloro-1-(diphenylmethyl)-2-[2-({[2-(trifluoromethyl)benzyl]sulfonyl}amino)ethyl]-1H-indol-3-yl}propyl)benzoic acid], the IC50 at cPLA2α came to 9 nM; in the assay on TXB2, 20 nM. In addition, the Paw edema result in the assay with carrageenan paw edema (2 hours before carrageenan, doses as low as 3 mg/kg) is reported as “statistically significantly decreased; also recorded: significantly inhibited edema”. Also, the ED50 in the assay on carrageenan paw edema (based on a maximal inhibition of 50%, read-out: approximate ED50 of paw edema inhibition) is about 7.5 mg/kg.

Broadly, the IC50 is the concentration at which inhibition is half-maximal. A higher IC50 goes with weaker potency in that assay. In general, ED50 refers to the dose that gives a 50% effect, or the effect in half of the subjects.
